ChEMBL document CHEMBL5230151, “A review of synthetic bioactive tetrahydro-β-carbolines: A medicinal chemistry perspective” (Eur J Med Chem, 2021)
Values after ≈ are worked out from the molar mass of the structure shown.

Legend:
[1] = Inhibition of Plasmodium falciparum IspD
Tobacco mosaic virus [2] = assay: In vivo antiviral activity against tobacco mosaic virus assessed as virus inactivation at 500 ug/ml relative to control; type: functional; details: dose 500 µg/ml
Tobacco mosaic virus [3] = assay: In vivo antiviral activity against tobacco mosaic virus assessed as curative activity at 500 ug/ml relative to control; type: functional; details: dose 500 µg/ml
Tobacco mosaic virus [4] = assay: In vivo antiviral activity against tobacco mosaic virus assessed as protection activity at 500 ug/ml relative to control; type: functional; details: dose 500 µg/ml
[5] = target: T1, cGMP-specific 3',5'-cyclic phosphodiesterase (Homo sapiens, UniProt O76074); assay: Inhibition of human PDE5A using fluorescence-labelled substrate
Plasmodium berghei = assay: Antiplasmodial activity against Plasmodium berghei assessed as inhibition of schizont maturation at 5 ug/ml relative to control; type: functional
[6] = target: T2, Protein deacetylase HDAC6 (Homo sapiens, UniProt Q9UBN7); assay: Inhibition of human HDAC6
T2 sequence (Q9UBN7 whole entry): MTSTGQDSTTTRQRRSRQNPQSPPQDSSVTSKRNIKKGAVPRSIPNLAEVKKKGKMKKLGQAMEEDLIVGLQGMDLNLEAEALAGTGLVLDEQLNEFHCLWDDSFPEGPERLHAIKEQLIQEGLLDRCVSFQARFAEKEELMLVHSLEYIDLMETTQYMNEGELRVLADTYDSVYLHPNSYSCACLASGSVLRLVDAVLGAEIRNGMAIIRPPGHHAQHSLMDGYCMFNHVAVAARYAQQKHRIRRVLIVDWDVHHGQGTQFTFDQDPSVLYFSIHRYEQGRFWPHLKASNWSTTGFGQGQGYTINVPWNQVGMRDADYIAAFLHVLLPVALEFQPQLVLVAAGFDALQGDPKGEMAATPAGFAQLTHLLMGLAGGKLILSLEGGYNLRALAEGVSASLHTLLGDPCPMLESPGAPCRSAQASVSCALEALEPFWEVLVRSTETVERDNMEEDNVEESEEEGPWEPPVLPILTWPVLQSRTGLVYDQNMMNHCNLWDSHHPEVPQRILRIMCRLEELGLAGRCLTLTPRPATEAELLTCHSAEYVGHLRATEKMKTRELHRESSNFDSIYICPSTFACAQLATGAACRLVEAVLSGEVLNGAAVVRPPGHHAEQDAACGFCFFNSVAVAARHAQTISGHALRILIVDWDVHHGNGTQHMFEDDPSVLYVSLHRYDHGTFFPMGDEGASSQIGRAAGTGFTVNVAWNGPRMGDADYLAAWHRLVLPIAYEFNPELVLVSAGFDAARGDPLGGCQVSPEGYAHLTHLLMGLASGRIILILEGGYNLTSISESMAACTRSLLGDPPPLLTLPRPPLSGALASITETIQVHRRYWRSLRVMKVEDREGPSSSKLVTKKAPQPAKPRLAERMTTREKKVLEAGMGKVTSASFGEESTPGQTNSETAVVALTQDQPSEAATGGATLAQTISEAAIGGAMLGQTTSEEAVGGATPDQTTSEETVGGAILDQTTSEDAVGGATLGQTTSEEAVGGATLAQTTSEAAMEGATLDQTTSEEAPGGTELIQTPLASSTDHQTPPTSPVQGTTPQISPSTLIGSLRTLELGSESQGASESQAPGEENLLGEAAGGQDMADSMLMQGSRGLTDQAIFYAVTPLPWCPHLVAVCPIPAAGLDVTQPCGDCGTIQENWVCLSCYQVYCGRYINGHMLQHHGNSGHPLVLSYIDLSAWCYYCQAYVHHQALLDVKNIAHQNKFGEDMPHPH

Histone deacetylase 1 = Histone deacetylase 1 (Homo sapiens, UniProt Q13547); assay: Inhibition of human HDAC1
[7] = target: T1, cGMP-specific 3',5'-cyclic phosphodiesterase; assay: Inhibition of PDE5 (unknown origin)
[8] = target: Amyloid-beta precursor protein (Homo sapiens) (UniProt P05067); assay: Inhibition of self-induced amyloid beta (1 to 42 ) (unknown origin) aggregation at 20 uM measured after 24 hrs by thioflavin-T fluorescence method relative to control
Acetylcholinesterase [9] = target: T3, Acetylcholinesterase (Electrophorus electricus, UniProt O42275); assay: Inhibition of electric eel AChE using acetylthiocholine iodide as substrate
[10] = Inhibition of equine serum BuChE using butyrylthiocholine chloride as substrate
Acetylcholinesterase [11] = target: T3, Acetylcholinesterase; assay: Inhibition of electric eel AChE using acetylthiocholine iodide as substrate measured after 20 mins by Ellmans method
[12] = Inhibition of equine serum BuChE using S-butylthiocholine iodide as substrate measured after 20 mins by Ellmans method; set-up: species or system […]
[13] = target: T4, Kinesin-like protein KIF11 (Homo sapiens, UniProt P52732); assay: Inhibition of Eg5 ATPase activity (unknown origin)
T4 sequence (P52732 whole entry): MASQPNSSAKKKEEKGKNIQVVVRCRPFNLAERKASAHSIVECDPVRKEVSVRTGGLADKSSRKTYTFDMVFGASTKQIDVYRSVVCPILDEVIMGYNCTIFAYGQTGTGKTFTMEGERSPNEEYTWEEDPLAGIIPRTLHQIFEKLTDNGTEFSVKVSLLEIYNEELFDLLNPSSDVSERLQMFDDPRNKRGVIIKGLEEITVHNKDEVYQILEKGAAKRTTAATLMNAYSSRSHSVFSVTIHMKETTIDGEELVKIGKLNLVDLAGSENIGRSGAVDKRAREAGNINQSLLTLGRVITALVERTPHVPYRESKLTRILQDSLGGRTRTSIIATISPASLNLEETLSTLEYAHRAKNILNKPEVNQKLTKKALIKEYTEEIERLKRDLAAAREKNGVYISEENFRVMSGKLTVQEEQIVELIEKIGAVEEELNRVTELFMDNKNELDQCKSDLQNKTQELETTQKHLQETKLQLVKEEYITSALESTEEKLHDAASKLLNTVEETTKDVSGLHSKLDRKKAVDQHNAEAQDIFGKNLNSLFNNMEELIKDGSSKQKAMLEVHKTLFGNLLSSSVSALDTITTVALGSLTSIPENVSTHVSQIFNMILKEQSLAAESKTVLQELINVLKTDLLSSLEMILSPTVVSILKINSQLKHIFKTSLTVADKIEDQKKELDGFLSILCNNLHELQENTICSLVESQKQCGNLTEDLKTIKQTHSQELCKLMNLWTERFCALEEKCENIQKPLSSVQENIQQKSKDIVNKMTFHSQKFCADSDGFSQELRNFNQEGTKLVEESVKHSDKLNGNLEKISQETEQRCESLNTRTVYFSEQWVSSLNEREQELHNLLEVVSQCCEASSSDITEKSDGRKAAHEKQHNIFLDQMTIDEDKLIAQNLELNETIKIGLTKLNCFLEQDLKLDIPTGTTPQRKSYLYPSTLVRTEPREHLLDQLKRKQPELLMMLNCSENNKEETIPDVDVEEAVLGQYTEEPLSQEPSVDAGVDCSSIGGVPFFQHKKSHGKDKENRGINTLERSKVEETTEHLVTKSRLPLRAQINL

Gaeumannomyces graminis [14] = assay: Antifungal activity against Gaeumannomyces graminis at 10 mg/ml relative to control; type: functional
Gaeumannomyces graminis [15] = assay: Antifungal activity against Gaeumannomyces graminis; type: functional, organism-based
[16] = target: T1, cGMP-specific 3',5'-cyclic phosphodiesterase; assay: Inhibition of human PDE5

T3 sequence (O42275 whole entry): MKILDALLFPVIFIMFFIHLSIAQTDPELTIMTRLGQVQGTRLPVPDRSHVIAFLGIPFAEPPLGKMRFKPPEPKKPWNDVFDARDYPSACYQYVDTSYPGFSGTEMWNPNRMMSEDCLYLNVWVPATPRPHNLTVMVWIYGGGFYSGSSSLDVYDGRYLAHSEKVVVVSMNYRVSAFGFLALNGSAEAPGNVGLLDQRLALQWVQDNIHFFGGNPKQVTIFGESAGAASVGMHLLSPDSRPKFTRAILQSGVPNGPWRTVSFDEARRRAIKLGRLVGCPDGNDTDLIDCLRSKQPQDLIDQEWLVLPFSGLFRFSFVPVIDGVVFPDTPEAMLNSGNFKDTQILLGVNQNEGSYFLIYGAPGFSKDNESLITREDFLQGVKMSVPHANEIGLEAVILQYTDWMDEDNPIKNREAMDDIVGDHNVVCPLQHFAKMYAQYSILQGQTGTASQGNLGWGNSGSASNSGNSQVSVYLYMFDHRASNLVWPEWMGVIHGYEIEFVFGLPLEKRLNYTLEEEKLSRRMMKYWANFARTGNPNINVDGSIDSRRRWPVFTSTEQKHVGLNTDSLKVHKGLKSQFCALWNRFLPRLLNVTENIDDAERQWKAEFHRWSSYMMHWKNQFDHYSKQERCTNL
Sequence of Histone deacetylase 1 (Q13547 whole entry): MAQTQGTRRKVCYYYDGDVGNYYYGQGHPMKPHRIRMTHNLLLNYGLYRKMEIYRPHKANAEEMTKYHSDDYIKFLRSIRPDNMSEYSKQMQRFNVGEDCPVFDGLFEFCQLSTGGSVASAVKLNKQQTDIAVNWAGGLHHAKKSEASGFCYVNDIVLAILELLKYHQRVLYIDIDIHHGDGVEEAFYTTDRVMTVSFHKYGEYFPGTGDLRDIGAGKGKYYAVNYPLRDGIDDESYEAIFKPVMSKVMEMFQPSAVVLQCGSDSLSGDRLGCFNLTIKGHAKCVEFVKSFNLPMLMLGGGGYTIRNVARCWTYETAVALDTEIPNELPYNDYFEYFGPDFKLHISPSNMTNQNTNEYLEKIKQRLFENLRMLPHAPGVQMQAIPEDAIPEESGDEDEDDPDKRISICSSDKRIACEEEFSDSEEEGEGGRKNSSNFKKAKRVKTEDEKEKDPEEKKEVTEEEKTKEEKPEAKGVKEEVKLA
Sequence of Amyloid-beta precursor protein (Homo sapiens) (P05067 whole entry): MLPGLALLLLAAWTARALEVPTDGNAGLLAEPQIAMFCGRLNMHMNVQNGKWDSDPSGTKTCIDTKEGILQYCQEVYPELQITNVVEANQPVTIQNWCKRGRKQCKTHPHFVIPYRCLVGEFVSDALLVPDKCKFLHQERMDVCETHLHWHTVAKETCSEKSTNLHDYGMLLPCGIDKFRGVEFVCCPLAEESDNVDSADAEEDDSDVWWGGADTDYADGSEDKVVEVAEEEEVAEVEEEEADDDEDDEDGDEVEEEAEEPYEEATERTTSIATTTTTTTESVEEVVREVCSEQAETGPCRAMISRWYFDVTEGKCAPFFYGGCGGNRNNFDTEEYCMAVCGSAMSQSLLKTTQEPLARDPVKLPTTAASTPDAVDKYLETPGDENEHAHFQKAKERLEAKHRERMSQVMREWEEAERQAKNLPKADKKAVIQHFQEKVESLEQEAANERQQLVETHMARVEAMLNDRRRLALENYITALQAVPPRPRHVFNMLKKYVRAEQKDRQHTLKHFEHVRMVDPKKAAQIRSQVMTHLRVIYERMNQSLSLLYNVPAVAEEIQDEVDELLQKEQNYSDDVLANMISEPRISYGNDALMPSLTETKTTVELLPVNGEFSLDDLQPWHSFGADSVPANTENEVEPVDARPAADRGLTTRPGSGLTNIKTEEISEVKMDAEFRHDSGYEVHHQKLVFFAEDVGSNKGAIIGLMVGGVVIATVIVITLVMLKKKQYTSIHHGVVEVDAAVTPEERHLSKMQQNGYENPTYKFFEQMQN

## O=C(O)[C@@H]1Cc2c([nH]c3ccccc23)[C@@H](c2ccc(Cl)cc2Cl)N1
[1]
  IC50: 210 nM

## CC1N[C@@H](C(=O)N/N=C/C2CCCCC2)Cc2c1[nH]c1ccccc21 (stereo partly drawn)
Tobacco mosaic virus [2]
  Activity: 75.8%
Tobacco mosaic virus [3]
  Activity: 62.8%
Tobacco mosaic virus [4]
  Activity: 69.2%

## O=C(CCCCCCN1CC(=O)N2[C@H](c3ccc(Br)cc3)c3[nH]c4ccccc4c3C[C@@H]2C1=O)NO
[5]
  IC50: 46 nM

## CNCC(=O)N[C@@H](CO)C(=O)N[C@H]1[C@H](O)[C@@H](O)[C@H](n2ccc(N)nc2=O)O[C@@H]1C(N)=O [NINGNANMYCIN]
Tobacco mosaic virus [2]
  Activity: 57.3%
Tobacco mosaic virus [3]
  Activity: 54.2%
Tobacco mosaic virus [4]
  Activity: 55%

## CC1N[C@@H](C(=O)N/N=C/c2ccc(Cl)cc2)Cc2c1[nH]c1ccccc21 (stereo partly drawn)
Tobacco mosaic virus [2]
  Activity: 70.4%
Tobacco mosaic virus [3]
  Activity: 71.5%
Tobacco mosaic virus [4]
  Activity: 64.2%

## COC(=O)[C@@H]1Cc2c([nH]c3ccccc23)[C@@H](c2cccnc2)N1
Plasmodium berghei
  inhibition at 5 µg/mL: 86.2%

## O=C(Cc1cnc(N2CCC(CN3CC(=O)N4[C@H](c5ccc6c(c5)OCO6)c5[nH]c6ccccc6c5C[C@@H]4C3=O)CC2)nc1)NO
[6]
  IC50: 239 nM
Histone deacetylase 1
  IC50: 197 nM
[5]
  IC50: 653 nM

## CCOC(=O)[C@H]1Cc2c([nH]c3ccccc23)[C@H](C)N1
Tobacco mosaic virus [2]
  Activity: 50.4%
Tobacco mosaic virus [3]
  Activity: 43.9%
Tobacco mosaic virus [4]
  Activity: 47.9%

## COc1cccc2c1C(=O)N1CCc3c([nH]c4cccc(OC)c34)[C@@H]1C2C (stereo partly drawn)
[7]
  IC50: 35 nM

## CCCCOC(=O)[C@H]1Cc2c([nH]c3ccccc23)[C@H](C)N1
Tobacco mosaic virus [2]
  Activity: 51.3%
Tobacco mosaic virus [3]
  Activity: 42.2%
Tobacco mosaic virus [4]
  Activity: 43.2%

## CN1C(=O)C2CN(Cc3c2c2ccccc2n3Cc2ccc(C(=O)NO)cc2)C1=O (stereo not drawn)
[6]
  IC50: 0.7 nM

## COc1ccc2[nH]c3c(c2c1)CCN(C(=O)/C=C/c1ccc(O)c(O)c1)C3C (stereo not drawn)
[8]
  inhibition: 65%
Acetylcholinesterase [9]
  IC50: 75300 nM
[10]
  IC50: 6470 nM

## CC1N[C@H](C(=O)N/N=C/c2ccc(Cl)cc2)Cc2c1[nH]c1ccccc21 (stereo partly drawn)
Tobacco mosaic virus [2]
  Activity: 66.9%
Tobacco mosaic virus [3]
  Activity: 63.2%
Tobacco mosaic virus [4]
  Activity: 68.1%

## c1ccc2c(NCCCCCCCN3CCc4c([nH]c5ccccc45)C3)c3c(nc2c1)CCCC3
Acetylcholinesterase [11]
  IC50: 17.4 nM
[12]
  IC50: 3.16 nM

## CCCCN1C(=O)[C@@H]2Cc3c([nH]c4ccccc34)[C@@H](c3cccc(O)c3)N2C1=O
[13]
  IC50: 4300 nM

## CC1c2[nH]c3ccccc3c2CCN1C(=O)/C=C/c1ccc(O)c(O)c1 (stereo not drawn)
Acetylcholinesterase [9]
  IC50: 21300 nM
[10]
  IC50: 1320 nM

## C[C@@H]1COC(c2ccccc2NC(=O)[C@@H]2Cc3c([nH]c4ccccc34)[C@H](C)N2)=N1
Gaeumannomyces graminis [14]
  inhibition at 10000 µg/mL: 72.2%
Gaeumannomyces graminis [15]
  EC50: 3.53 µg/mL (≈ 9.09 µM)

## C[C@@H]1N[C@H](C(=O)Nc2ccccc2C2=N[C@@H](C)CO2)Cc2c1[nH]c1ccccc21
Gaeumannomyces graminis [14]
  inhibition at 10000 µg/mL: 65.8%

## O=C(CCCCN1CCc2c([nH]c3ccccc23)C1)Oc1ccc(/C=C2/CCc3nc4ccccc4c(=O)n32)cc1
Acetylcholinesterase [11]
  IC50: 1.08 nM

## COC(=O)[C@@H]1Cc2c([nH]c3ccccc23)[C@@H](c2ccc3c(c2)OCO3)N1
Plasmodium berghei
  inhibition at 5 µg/mL: 71.8%

## C[C@@H]1N[C@@H](C(=O)NN)Cc2c1[nH]c1ccccc21
Tobacco mosaic virus [2]
  Activity: 64.2%
Tobacco mosaic virus [3]
  Activity: 57.2%
Tobacco mosaic virus [4]
  Activity: 59.5%

## COC(=O)c1cc2c(cn1)[nH]c1ccccc12 [BETA-CCM]
[16]
  IC50: 800 nM
